Laboratory results published in patent publication US8884011B2, “Nucleotide analogues as precursor molecules for antivirals” (Centre National de la Recherche Scientifique-CNRS, priority 2006, dated 2014).
Where two headings read alike, the source gives them in different places.

Assays:
K65R mutant RT of HIV-1 [1] = molecular target: K65R mutant RT of HIV-1 (Human immunodeficiency virus type 1 group M subtype B, UniProt P04585, K652R); test: biochemical; format: biochemical; settings: K65R mutant RT; for Selectivity = (kpol/Kd) natural nucleotide/(kpol/Kd) nucleotide analogue: versus dATP
wild-type RT of HIV-1 = wild-type RT of HIV-1 (Human immunodeficiency virus type 1 group M subtype B, UniProt P04585); test: biochemical; format: biochemical; settings: wild-type RT; for Selectivity = (kpol/Kd) natural nucleotide/(kpol/Kd) nucleotide analogue (discrimination): versus dATP
K65R mutant RT of HIV-1 [2] = test: biochemical; format: biochemical
[3] = Cytostatic effect on parent hepatoma cell line HepG2 (MTS method); settings: human, exponentially growing HepG2 cells
HBV [4] = test: Anti-HBV test in infected Huh7 cells; format: cell-based; settings: Hepatitis B virus, Huh-7, read-out: EC50 (μM) HBV
HBV [5] = test: Anti-HBV test in infected HepAD38 cells (intracellular viral DNA by Q-PCR); format: cell-based
Description: These are hepatoma cells that have been stably transfected with a cDNA copy of the pregenomic RNA of wild-type virus. Withdrawal of tetracycline from the culture medium results in the initiation of viral replication. This offers the advantage, in contrast to the Hep G2.2.15 cell lines commonly used, that there is no, or very limited background viral DNA synthesis. Cells were cultured at 37° C. in a humidified 5% CO2/air atmosphere in seeding medium, DMEM/Ham's F12 (50/50) supplemented with 10% (v/v) heat-inactivated fetal calf serum, 100 IU/ml penicillin, 50 μg/ml streptomycin, 100 Ξg/ml kanamycin, 400 μg/ml G418, and 0.3 μg/ml tetracycline. […] After 2-3 days the cultures were induced for viral production by washing with prewarmed PBS and were fed with […] assay medium (seeding medium without tetracycline and G418) with or without the antiviral compounds. Medium was changed after 3 days. The antiviral effect was quantified by measuring levels of intracellular viral DNA at day 6 post-induction, by a real time quantitative PCR (Q-PCR) method. Total cellular DNA was extracted from the cells by means of a commercial kit. […] The reaction was analyzed using a SDS 7000. A plasmid containing the full length insert of the HBV genome was used to prepare the standard curve. The amount of viral DNA produced in treated cultures was expressed as a percentage of the mock treated samples. […] The cytostatic effect of the various compounds was assessed employing the parent hepatoma cell line HepG2. The effect of the compounds on exponentially growing HepG2 cells was evaluated by means of the MTS method. Briefly, cells were seeded at a density of 3000/well (96 well plate) and were allowed to proliferate for 3 days in the absence or presence of compounds after which the optical density was measured with a 96-well plate reader and cell density was determined.

HIV-1-LAI = test: Anti-HIV test in CMSP cultures infected by HIV-1-LAI (RT activity in supernatants); format: cell-based
[6] = Cytotoxicity by MTT test in cultures of uninfected CMSP; settings: human

Q: For `Nc1ncnc2c1ncn2[C@H]1C[C@H](O)[C@@H](COP(=O)(O)OP(=O)(O)OP(=O)(O)O)O1` [dATP], which Kd (K65R mutant RT of HIV-1 [1]) is on record?
A: The Kd was 6.89 µM.

Q: And the “kpol” value (K65R mutant RT of HIV-1 [1])?
A: The value was 11.63 s⁻¹.

Q: What about the kpol/Kd (K65R mutant RT of HIV-1 [1]) of the same compound?
A: Its kpol/Kd is 1.69.

Q: And the “kpol” value (wild-type RT of HIV-1)?
A: The value was 50.16 s⁻¹.

Q: What about the kpol/Kd (wild-type RT of HIV-1) of the same compound?
A: The kpol/Kd was 6.71.

Q: What about the Kd (wild-type RT of HIV-1; read-out: Kd) of the same compound?
A: Its Kd is 7.47 µM.

Q: And the Kd (wild-type RT of HIV-1; unit inferred, read-out: affinities of the RT for the analogues (Kd))?
A: Its Kd is 7.5 µM.

Q: For `Nc1ncnc2c1ncn2CCOCP(=O)(O)OP(=O)(O)OP(=O)(O)O` [PMEApp, PMEA diphosphate], which “reduction in the incorporation velocity of the nucleotide (factor)” value (K65R mutant RT of HIV-1 [2]) is on record?
A: Its value is 9.

Q: What about the Kd (K65R mutant RT of HIV-1 [1]) of the same compound?
A: The Kd was 7.7 µM.

Q: And the “kpol” value (K65R mutant RT of HIV-1 [1])?
A: The value was 0.75 s⁻¹.

Q: And the kpol/Kd (K65R mutant RT of HIV-1 [1])?
A: Its kpol/Kd is 0.1.

Q: What about the “Selectivity = (kpol/Kd) natural nucleotide/(kpol/Kd) nucleotide analogue” value (K65R mutant RT of HIV-1 [1]) of the same compound?
A: Its value is 16.9.

Q: What about the “kpol” value (wild-type RT of HIV-1) of the same compound?
A: Its value is 6.8 s⁻¹.

Q: What about the kpol/Kd (wild-type RT of HIV-1) of the same compound?
A: The kpol/Kd was 0.86.

Q: What about the “Selectivity = (kpol/Kd) natural nucleotide/(kpol/Kd) nucleotide analogue (discrimination)” value (wild-type RT of HIV-1) of the same compound?
A: The value was 7.8.

Q: And the Kd (wild-type RT of HIV-1; read-out: Kd)?
A: Its Kd is 7.9 µM.

Q: With `CC(Cn1cnc2c(N)ncnc21)OCP(=O)(O)O` (stereo not drawn) [PMPA, 9-(2-(phosphonomethoxy)propyl)adenine] as the compound, how does the CC50 at 3 days [3] read?
A: The CC50 at 3 days was greater than 35 µM.

Q: And the EC50 (HBV [4])?
A: Its EC50 is 4 µM.

Q: What about the “SI selectivity index (TC50/EC50)” value (HBV [5]; HBV, HepAD38 cells) of the same compound?
A: The value was greater than 12.

Q: What about the EC50 (HBV [5]; Hepatitis B virus, 144 h, infected HepAD38 cells, 50% reduction of viral DNA, day 6 post-induction) of the same compound?
A: The EC50 was 2.88 µM.

Q: What about the “IT (selectivity index, TC50/EC50)” value (HIV-1-LAI; HIV-1 (LAI), CMSP) of the same compound?
A: Its value is greater than 77.

Q: What about the EC50 (HIV-1-LAI; Human immunodeficiency virus 1, 168 h, read-out: EC50 (μM) HIV-1 (LAI)) of the same compound?
A: The EC50 was 1.3 µM.

Q: And the CC50 at 7 days [6]?
A: Its CC50 at 7 days is greater than 100 µM.

Q: Which results are given for `C[C@@H](Cn1cnc2c(N)ncnc21)OCP(=O)(O)OP(=O)(O)OP(=O)(O)O` [PMPApp, PMPA diphosphate]?
A: reduction in the incorporation velocity of the nucleotide (factor) (K65R mutant RT of HIV-1 [2]): 22; Kd (K65R mutant RT of HIV-1 [1]): 18 µM; kpol (K65R mutant RT of HIV-1 [1]): 0.32 s⁻¹; kpol/Kd (K65R mutant RT of HIV-1 [1]): 0.017; Selectivity = (kpol/Kd) natural nucleotide/(kpol/Kd) nucleotide analogue (K65R mutant RT of HIV-1 [1]): 99.4; kpol (wild-type RT of HIV-1): 7 s⁻¹; kpol/Kd (wild-type RT of HIV-1): 0.3; Selectivity = (kpol/Kd) natural nucleotide/(kpol/Kd) nucleotide analogue (discrimination) (wild-type RT of HIV-1): 22.3; Selectivity = (kpol/Kd) natural nucleotide/(kpol/Kd) nucleotide analogue (discrimination) (wild-type RT of HIV-1; listed as PMPADP): 22; Kd (wild-type RT of HIV-1; read-out: Kd): 23 µM
